# Test results from patent US20050107959A1, “Screening method for evaluation of bilayer-drug interaction in liposomal compositions” (priority 2003, published 2005).
# Experiment: Differential scanning calorimetry (VP-DSC) of DSPC liposomes (MLVs) with drugs
# Type: physicochemical
# Parameters: ΔHcal / ΔHvH / ΔHv: unit not given here
# Conditions: for Interaction of the drug with the lipid bilayer (thermogram deviation from DSPC control): FIGS. 1A-1D, pH 3.6, DSPC/drug mixture vs DSPC control; for ΔHcal: calorimetric phase transition enthalpy; for ΔHcal / Cpmax / ΔTm½ / ΔT½: drug-to-lipid 1:5; for CU: cooperativity unit = ΔHvH/ΔHcal; for Tm: drug-to-lipid mole ratio 1:5; for Cpmax: heat capacity at phase transition peak; for ΔTm½ / ΔT½: transition peak width at half-height; for ΔHvH / ΔHv: van't Hoff's enthalpy calculated from DSC measurements; for Coop: cooperativity calculated from DSC measurements
# Description: Differential scanning calorimetry (DSC) is a method known in the art used to measure the amount of energy (as heat) absorbed or released by a sample as it is heated, cooled, or held at a constant temperature. As used herein, the term “DSC measurements” further includes calculations using a measured feature of the sample. An exemplary method of measuring DSC utilizes a differential scanning calorimeter. Any calorimeter is suitable as long as the temperature range of the calorimeter is appropriate for the sample measurements. An exemplary calorimeter is the VP-DSC differential scanning calorimeter available from MicroCal (Northampton, Mass., USA). Typical applications using the differential scanning calorimeter include determination of melting point temperature and/or the heat of melting, measurement of the glass transition temperature, curing and crystallization studies, and identification of phase transformations.
# In the embodiment using a differential scanning calorimeter for measuring the thermodynamic properties of a lipid suspension, the heat flow into a sample is usually contained in a sample cell and measured differentially, i.e. by comparing the heat flow of the sample to the heat flow into an reference cell containing an equal volume of water or the aqueous component of the sample. The heat flow may be considered as the amount of heat (q) supplied per unit of time (t), or q/t. Typically, both cells sit inside a metal jacket with a known (calibrated) heat resistance (K). The temperature of the calorimeter is raised linearly with time (scanned), where the heating rate (β=dT/dt) of the cells are kept constant and consistent with each other. […] The temperature may be controlled manually or automatically. […] Heat flows into the two cells by conduction from a heat source such as a radiator. The heat flow into the sample cell is larger due to the additional heat capacity (Cp) of the sample during the course of the phase transition. Heat capacity refers to the heat flow divided by the heating rate or Cp=q/ΔT, where q is heat, and ΔT is temperature increase. The difference in heat flow (dq/dt) induces a temperature difference (dT) between the sample and the reference cells. This temperature difference is measured using any appropriate sensor, such as a thermocouple, and a signal is generated representative of the difference.
# In this figure, in a heating scan, an endothermic event results in a positive (upward) deviation from the baseline. […] The melting temperature is seen on the heat flow plot as a peak as heat is absorbed by the sample until the phase transition is completed. As will be appreciated by those of skill in the art, the main phase transition extends over a temperature range, although this peak is typically very sharp for most vesicle-forming lipids, such as DSPC, the Tm can be reported as the onset of the transition, as the midpoint of the transition, the peak temperature, or any suitable point as long as the parameters are defined. […] It will be appreciated that the exact percent of phase transition is not important as long as it is defined. Where a ratio is used, it is desirable to use the same ratio for each sample to aid in comparison between the samples. In the studies reported herein, the Tm is reported as the maximum peak of the transition range.
# The latent heat of melting, or the calorimetric phase transition enthalpy, (ΔHcal) can be determined by first determining the area (A) under the peak according to the following formula: A=(heat in calories)(temperature in Kelvin)/(time in seconds)(mass in moles).
# [1] = pH 3.6, scan 20° C./hour, maximum peak of main phase transition
structure (smiles),measurement,setting,value
CC[C@@]1(O)C(=O)OCc2c1cc1n(c2=O)Cc2c-1nc1ccccc1c2CCNC(C)C [CKD602],Interaction of the drug with the lipid bilayer (thermogram deviation from DSPC control),,some interaction
same,ΔHcal,pH 3.6,11.81
same,CU,pH 3.6,45.9
same,Tm,pH 3.6,54.7 °C
same,Tm,[1],54.6 °C
same,Cpmax,pH 3.6,7.5
same,ΔTm½,pH 3.6,1.27 °C
same,ΔHvH,pH 3.6,542.3
same,ΔHcal,pH 7.0,11.2
same,Coop,pH 7.0,117
same,Tm,pH 7.0,54.43 °C
same,Tm,"pH 7.0, scan 20° C./hour",54.43 C.
same,Cpmax,pH 7.0,17.2
same,ΔT½,pH 7.0,0.42 °C
same,ΔHv,pH 7.0,1308
O=C(O)c1cn(C2CC2)c2cc(N3CCNCC3)c(F)cc2c1=O [ciprofloxacin],ΔHcal,pH 3.6,9.98
same,CU,pH 3.6,38.6
same,Tm,pH 3.6,55 °C
same,Tm,[1],54.9 °C
same,Cpmax,pH 3.6,4.5
same,ΔHvH,pH 3.6,385.6
COc1cccc2c1C(=O)c1c(O)c3c(c(O)c1C2=O)C[C@@](O)(C(=O)CO)C[C@@H]3O[C@H]1C[C@H](N)[C@H](O)[C@H](C)O1 [doxorubicin],Interaction of the drug with the lipid bilayer (thermogram deviation from DSPC control),,weak interaction
same,ΔHcal,pH 3.6,9.28
same,CU,pH 3.6,73.3
same,Tm,pH 3.6,54.6 °C
same,Tm,[1],54.5 °C
same,Cpmax,pH 3.6,7.4
same,ΔTm½,pH 3.6,0.94 °C
same,ΔHvH,pH 3.6,680.5
same,ΔHcal,pH 7.0,9.66
same,Coop,pH 7.0,149
same,Tm,pH 7.0,54.5 °C
same,Tm,"pH 7.0, scan 20° C./hour",54.45 C.
same,Cpmax,pH 7.0,16.3
same,ΔT½,pH 7.0,0.4 °C
same,ΔHv,pH 7.0,1437
CC(=O)O[C@H]1C(=O)[C@@]2(C)[C@H]([C@H](OC(=O)c3ccccc3)[C@]3(O)C[C@H](OC(=O)[C@H](O)[C@@H](NC(=O)c4ccccc4)c4ccccc4)C(C)=C1C3(C)C)[C@]1(OC(C)=O)CO[C@@H]1C[C@@H]2O [paclitaxel],Interaction of the drug with the lipid bilayer (thermogram deviation from DSPC control),,significant interaction
same,ΔHcal,pH 3.6,10.6
same,CU,pH 3.6,26.6
same,Tm,pH 3.6,54.5 °C
same,Tm,[1],54.5 °C
same,Cpmax,pH 3.6,3.5
same,ΔTm½,pH 3.6,2.27 °C
same,ΔHvH,pH 3.6,281.7
same,ΔHcal,pH 7.0,9.94
same,Coop,pH 7.0,75
same,Tm,pH 7.0,54.07 °C
same,Tm,"pH 7.0, scan 20° C./hour",54.07 C.
same,Cpmax,pH 7.0,8.67
same,ΔT½,pH 7.0,0.77 °C
same,ΔHv,pH 7.0,741
CC[C@]1(O)C[C@H]2CN(CCc3c([nH]c4ccccc34)[C@@](C(=O)OC)(c3cc4c(cc3OC)N(C=O)[C@H]3[C@@](O)(C(=O)OC)[C@H](OC(C)=O)[C@]5(CC)C=CCN6CC[C@]43[C@@H]65)C2)C1 [vincristine],Interaction of the drug with the lipid bilayer (thermogram deviation from DSPC control),,some interaction
same,ΔHcal,pH 3.6,12.77
same,CU,pH 3.6,37.2
same,Tm,pH 3.6,54.7 °C
same,Tm,[1],54.6 °C
same,Cpmax,pH 3.6,7.1
same,ΔTm½,pH 3.6,1.42 °C
same,ΔHvH,pH 3.6,474.9
same,ΔHcal,pH 7.0,11.65
same,Coop,pH 7.0,43
same,Tm,pH 7.0,53.93 °C
same,Tm,"pH 7.0, scan 20° C./hour",53.93 C.
same,Cpmax,pH 7.0,6.81
same,ΔT½,pH 7.0,1.38 °C
same,ΔHv,pH 7.0,496
